pIC50: −log10 of the molar value.
Key:
[1] = tested on: DU-145; experiment: Cytotoxicity against human hormone nonresponsive DU-145 cells assessed as reduction in cell proliferation by MTT assay; assay type: functional, cell-based
[2] = tested on: PC-3; experiment: Cytotoxicity against human hormone nonresponsive PC-3 cells assessed as reduction in cell proliferation by MTT assay; assay type: functional, cell-based
[3] = tested on: LNCaP; experiment: Cytotoxicity against human LNCaP cells assessed as reduction in cell proliferation by MTT assay; assay type: functional, cell-based
[4] = Cytotoxicity against human HFF cells assessed as reduction in cell proliferation by MTT assay; assay type: toxicity, cell-based
[5] = Cytotoxicity against human hormone nonresponsive and Castration-resistant 22Rv1 cells assessed as reduction in cell proliferation by MTT assay; assay type: functional, cell-based, Castration-resistant 22Rv1 cell

| SMILES | pIC50 [1] | pIC50 [2] | pIC50 [3] | pIC50 [4] | pIC50 [5] |
| --- | --- | --- | --- | --- | --- |
| CC(=O)OCC1=C(C)C[C@H]([C@@H](C)[C@H]2CC[C@H]3[C@@H]4C[C@H]5O[C@]56[C@@H](O)C=CC(=O)[C@]6(C)[C@H]4CC[C@]23C)OC1=O | 6.10 | 6.52 | 5.72 | 5.72 | 5.85 |
| C=C1C(=O)O[C@@H]([C@@H](C)[C@H]2CC[C@H]3[C@@H]4C[C@H]5O[C@]56[C@@H](OC(C)=O)C=CC(=O)[C@]6(C)[C@H]4CC[C@]23C)C=C1C | 5.60 | 6.40 | 5.80 | 5.70 | 5.82 |
| C=C1C[C@@H]([C@@H](C)[C@H]2CC[C@H]3[C@@H]4C[C@H]5O[C@]56[C@@H](OC(=O)c5ccc([N+](=O)[O-])cc5)C=CC(=O)[C@]6(C)[C@H]4CC[C@]23C)OC(=O)[C@@]12CCC1=C(C[C@@H]([C@@H](C)[C@H]3CC[C@H]4[C@@H]5C[C@H]6O[C@]67[C@@H](OC(=O)c6ccc([N+](=O)[O-])cc6)C=CC(=O)[C@]7(C)[C@H]5CC[C@]34C)OC1=O)C2 | 5.96 | 6.70 | 5.64 | 6.30 | 5.96 |
| C=C1C[C@@H]([C@@H](C)[C@H]2CC[C@H]3[C@@H]4C[C@H]5O[C@]56[C@@H](OC(C)=O)C=CC(=O)[C@]6(C)[C@H]4CC[C@]23C)OC(=O)[C@@]12CCC1=C(C[C@@H]([C@@H](C)[C@H]3CC[C@H]4[C@@H]5C[C@H]6O[C@]67[C@@H](OC(C)=O)C=CC(=O)[C@]7(C)[C@H]5CC[C@]34C)OC1=O)C2 | 5.43 | 6.00 | < 5.30 | 5.60 | 5.59 |
| C=C1C[C@@H]([C@@H](C)[C@H]2CC[C@H]3[C@@H]4C[C@H]5O[C@]56[C@@H](O)C=CC(=O)[C@]6(C)[C@H]4CC[C@]23C)OC(=O)[C@@]12CCC1=C(C[C@@H]([C@@H](C)[C@H]3CC[C@H]4[C@@H]5C[C@H]6O[C@]67[C@@H](O)C=CC(=O)[C@]7(C)[C@H]5CC[C@]34C)OC1=O)C2 | 6.00 | 6.70 | 6.05 | 6.22 | 5.96 |
| COc1cccc2c1C(=O)c1c(O)c3c(c(O)c1C2=O)C[C@@](O)(C(=O)CO)C[C@@H]3O[C@H]1C[C@H](N)[C@H](O)[C@H](C)O1 [DOXORUBICIN] | 7.00 | 6.22 | 7.00 | 5.85 | 7.40 |
| C=C1C(=O)O[C@@H]([C@@H](C)[C@H]2CC[C@H]3[C@@H]4C[C@H]5O[C@]56[C@@H](O)C=CC(=O)[C@]6(C)[C@H]4CC[C@]23C)C=C1C | < 5.30 | 5.66 | < 5.30 | < 5.30 | < 5.30 |

Source: ChEMBL document CHEMBL5344447, “A Homodimer of Withaferin A Formed by Base-Promoted Elimination of Acetic Acid from 27-O-Acetylwithaferin A Followed by a Diels-Alder Reaction” (J Nat Prod, 2024)
